The results in this text go back to patent US7265099B1, “Use of chemical chelators as reversal agents for drug-induced neuromuscular block” (Organon N.V., priority 1999, dated 2007).

Marks after values point to notes of the source that are not given here.

The subject of experiment [1] is steady-state neuromuscular block induced by vecuronium bromide (Vec). As to the kind of experiment: Reversal of neuromuscular blockade in vivo, anaesthetized guinea pig, vecuronium. To be noted: Vec infusion, 85–90% block, anaesthetized guinea pigs, i.v. reversal agent; mean. As to the method:
(§1) Male Dunkin-Hartley guinea pigs (bodyweight: 600–900 g) were anaesthetized by i.p. administration of 10 mg/kg pentobarbitone and 1000 mg/kg urethane. After tracheotomy, the animals were artificially ventilated using a Harvard small animal ventilator. A catheter was placed into the carotid artery for continuous monitoring of arterial blood pressure and the taking of blood samples for blood gas analysis. Heart rate was derived from the blood pressure signal. The sciatic nerve was stimulated (rectangular pulses of 0.5 ms duration at 10 s (0.1 Hz) intervals at a supramaximal voltage, using a Grass S88 Stimulator) and the force of M. gastrocnemius contractions was measured using a Grass FT03 force-displacement transducer. Contractions, blood pressure and heart rate were recorded on a multichannel Grass 7D recorder. Catheters were placed in both jugular veins. One catheter was used for the continuous infusion of a neuromuscular blocking agent. The infusion rate of the neuromuscular blocking agent was increased until a steady-state block of 85–90% was obtained. The other catheter was used for administration of increasing doses of the reversal agent. During continuous infusion of the neuromuscular blocking agent, single doses of increasing concentration of reversal agent were given. At the end of the experiment, the measured force of muscle contractions was plotted against the concentration of reversal agent, and using regression analysis techniques, the 50% reversal concentration was calculated.

The subject of experiment [2] is steady-state neuromuscular block induced by suxamethonium chloride (Sux; succinylcholine). As to the kind of experiment: Reversal of neuromuscular blockade in vivo, anaesthetized guinea pig, suxamethonium. To be noted: Sux infusion, 85–90% block, anaesthetized guinea pigs, i.v. reversal agent; mean. As to the method:
as §1

The test system of experiment [3] is steady-state neuromuscular block induced by mivacurium chloride (Miv). As to the kind of experiment: Reversal of neuromuscular blockade in vivo, anaesthetized guinea pig, mivacurium. The conditions noted are these: Miv infusion, 85–90% block, anaesthetized guinea pigs, i.v. reversal agent; mean. As to the method:
as §1

The test system of experiment [4] is steady-state neuromuscular block induced by rapacuronium bromide (Rap; Org 9487). As to the kind of experiment: Reversal of neuromuscular blockade in vivo, anaesthetized guinea pig, rapacuronium. The conditions noted are these: Rap infusion, 85–90% block, anaesthetized guinea pigs, i.v. reversal agent; mean. As to the method:
as §1

Experiment [5] deals with steady-state neuromuscular block induced by pancuronium bromide (Pan). As to the kind of experiment: Reversal of neuromuscular blockade in vivo, anaesthetized guinea pig, pancuronium. To be noted: Pan infusion, 85–90% block, anaesthetized guinea pigs, i.v. reversal agent; mean. Here is the method:
as §1

Experiment [6] concerns neuromuscular block induced by rocuronium in isolated mouse hemidiaphragm. As to the kind of experiment: Reversal of neuromuscular block in vitro: isolated mouse hemidiaphragm preparation. The conditions noted are these: for Mouse hemidiaphragm: maximum reversal (%) / concentration of chemical chelator at maximum reversal: 3.1 μM rocuronium; for concentration of chemical chelator at maximum reversal: mouse hemidiaphragm; for Reversal of the neuromuscular blocking action of rocuronium (in words): rocuronium-induced block. Here is the method:
Hemidiaphragms, with phrenic nerves attached, were removed from euthanized male mice (Institute of Cancer Research; bodyweight: 20–60 g). The preparations were mounted on a tissue holder and placed in a tissue bath filled with a modified Krebs-Henseleit solution (composition: 118 mM NaCl, 30 mM NaHCO3, 5 mM KCl, 1 mM KH2PO4, 1 mM MgSO4, 30 mM glucose and 2.5 mM CaCl2) at 37° C. and bubbled with 95% oxygen and 5% carbondioxide. One end of the preparation was connected with a siliconized silk suture to a Grass FT03 force-displacement transducer. An initial force of 10 mN was applied. The phrenic nerve was placed on a bipolar platinum electrode and was stimulated with rectangular pulses of 0.2 ms duration at 20 s (0.05 Hz) intervals at a supramaximal voltage, using a Grass S88 Stimulator. Contractions were recorded on a four channel Grass 79D recorder.
Increasing amounts of reversal agent were then administered into the bath at intervals of 10 min. The % maximum reversal was established. At the end of the experiment, the measured muscle contractions force was plotted against the concentration of reversal agent, and using regression analysis techniques, the 50% reversal concentration was calculated.
After induction of neuromuscular block by rocuronium, the % maximum reversal produced by the addition of a number of γ-cyclodextrin derivatives (compounds 11–16), a cyclic octasaccharide comprising 4 rhamnosyl-mannopyranosyl units (compound 24), or a number of paracyclophane derivatives (compounds 17–21 and 23) are presented in Table II.
Reversal of neuromuscular block in vitro was carried out using the mouse hemidiaphragm preparation as described in Example 6.

In experiment [7] the test system is steady-state neuromuscular block induced by atracurium besilate (Atr). As to the kind of experiment: Reversal of neuromuscular blockade in vivo, anaesthetized guinea pig, atracurium. The conditions noted are these: Atr infusion, 85–90% block, anaesthetized guinea pigs, i.v. reversal agent; mean. Here is the method:
as §1

Experiment [8] relates to steady-state neuromuscular block induced by cis-atracurium (Cis-Atr). As to the kind of experiment: Reversal of neuromuscular blockade in vivo, anaesthetized guinea pig, cis-atracurium. To be noted: Cis-Atr infusion, 85–90% block, anaesthetized guinea pigs, i.v. reversal agent; mean. As to the method: as §1
The subject of experiment [9] is steady-state neuromuscular block induced by rocuronium bromide (Roc). Briefly: Reversal of neuromuscular blockade in vivo, anaesthetized guinea pig, rocuronium. The conditions noted are these: Roc infusion, 85–90% block, anaesthetized guinea pigs, i.v. reversal agent; mean. Here is the method:
as §1
Reversal of neuromuscular block in vivo, induced by rocuronium bromide, was carried out as described in Example 5.

The subject of experiment [10] is steady-state neuromuscular block induced by tubocurarine chloride (T-C). As to the kind of experiment: Reversal of neuromuscular blockade in vivo, anaesthetized guinea pig, tubocurarine. The conditions noted are these: T-C infusion, 85–90% block, anaesthetized guinea pigs, i.v. reversal agent; mean. Here is the method:
as §1

Experiment [11] in a line: Complexation of rocuronium bromide by chemical chelators (1H NMR, 303 K). The class given is binding. The conditions noted are these: NMR spectroscopy at 303 K, D2O, curve fitting of proton chemical shift changes. As to the method:
All the ^1H spectra (303 K) were recorded at 400.13 MHz with 128 scans, sw=12 ppm, TD=32 k and zero filled to 64 k real points in processing. All experiments were measured at 303K.
Determination of Stoichiometry
Stock solutions of rocuronium bromide and γ-cyclodextrin (15) were prepared, both with a concentration of 6.02 mM. From these, sixteen solutions were prepared (with the mole % of rocuronium ranging from 0-100) by taking aliquots of 0–800 μl of the rocuronium bromide solution. Aliquots of the γ-cyclodextrin solution, 800–0 μl were added to make the solution a total volume of 800 μl and 100 mole % (i.e. 6.02 mM of [rocuronium bromide+γ-cyclodextrin]). ^1H-NMR spectra were recorded as described above.
If the chemical shift change of H9α in rocuronium bromide is defined as Δδ then a plot of [Δδ*(mole % rocuronium bromide)] vs. [mole % rocuronium bromide] gives a so called Job Plot by the method of continuous variation (Connors K. A.: Binding constants, The measurement of Molecular Complex Stability; Wiley-Interscience; New York, 1987, pp 24–28). The maximum in this plot is indicative for the stoichiometry of the complex.
Determination of the Association Constants
A stock solution of rocuronium bromide: 0.821 mM in D2O was prepared. […]
^1H NMR spectra were recorded as descibed above. […]

Turning to “2-hydroxypropyl-γ-CD (DS = 4) [Compound 16]”, the “Dose (ED50) producing 50% reversal of steady-state neuromuscular block” value (shortened to “Dose (ED50) producing 50% reversal”) in experiment [1] is 123 (3) μmol.kg^−1; in [2], 1340 (2) μmol.kg^−1; in [3], 1674 (2) μmol.kg^−1; in [4] it was 134 (3) μmol.kg^−1; in experiment [5], 440 (3) μmol.kg^−1; in experiment [7], 828 (2) μmol.kg^−1. Further, the “Dose (ED50) producing 50% reversal” value is given as 878 (2) μmol.kg^−1 in experiment [8], 12 (3) μmol.kg^−1 in experiment [9] and 909 (2) μmol.kg^−1 in experiment [10]. Moreover, the “Mouse hemidiaphragm: maximum reversal (%)” value (from here on “Mouse hemidiaphragm … (%)”) in experiment [6] is 71%. Moreover, the “concentration of chemical chelator at maximum reversal” value (“concentration of chemical chelator” for short) in experiment [6] was 360 µM.

`OC[C@H]1O[C@@H]2O[C@H]3[C@H](O)[C@@H](O)[C@@H](O[C@H]4[C@H](O)[C@@H](O)[C@@H](O[C@H]5[C@H](O)[C@@H](O)[C@@H](O[C@H]6[C@H](O)[C@@H](O)[C@@H](O[C@H]7[C@H](O)[C@@H](O)[C@@H](O[C@H]8[C@H](O)[C@@H](O)[C@@H](O[C@H]1[C@H](O)[C@H]2O)O[C@@H]8CO)O[C@@H]7CO)O[C@@H]6CO)O[C@@H]5CO)O[C@@H]4CO)O[C@@H]3CO` [Compound 9, β-cyclodextrin]: the “Dose (ED50) producing 50% reversal” value in experiment [1] is 636 (1) μmol.kg^−1; in experiment [4] it was 358 (3) μmol.kg^−1; in [5], 1050 (2) μmol.kg^−1; in [9] it was 20 (3) μmol.kg^−1. Moreover, in experiment [11], the “Association constant (Ka, M^−1) of 1:1 complex of rocuronium bromide and cyclic host compound” value is given as 3,100–3,900* M^−1.

As to “carboxyethyl-γ-CD (DS = 3.8) [Compound 14]”, the “Dose (ED50) producing 50% reversal” value is recorded as 25 (3) μmol.kg^−1 in [1]; 1294 (2) μmol.kg^−1 in experiment [2]; 399 (2) μmol.kg^−1 in experiment [3]; 43 (3) μmol.kg^−1 in experiment [4]; 141 (3) μmol.kg^−1 in [5]; 421 (2) μmol.kg^−1 in experiment [7]. The “Dose (ED50) producing 50% reversal” value in experiment [8] is 1558 (3) μmol.kg^−1; in [9], 7 (3) μmol.kg^−1; in experiment [10], 294 (2) μmol.kg^−1. Also, the “Mouse hemidiaphragm … (%)” value in experiment [6] worked out at 87%. The “concentration of chemical chelator” value in [6] stood at 144 µM. Moreover, the “Reversal of the neuromuscular blocking action of rocuronium (in words)” value in experiment [6] is “efficiently blocked”.

For “carboxymethyl-γ-CD (DS = 3.2) [Compound 13]”, the “Dose (ED50) producing 50% reversal” value in experiment [1] is on record as 30 (3) μmol.kg^−1; in experiment [2], 999 (2) μmol.kg^−1; in experiment [3], 964 (3) μmol.kg^−1; in experiment [4] it was 227 (2) μmol.kg^−1; in experiment [5], 641 (4) μmol.kg^−1; in [7], 990 (2) μmol.kg^−1. Besides, the “Dose (ED50) producing 50% reversal” value in experiment [8] was 893 (2) μmol.kg^−1; in [9], 25 (4) μmol.kg^−1; in experiment [10], 431 (2) μmol.kg^−1. Besides, the “Mouse hemidiaphragm … (%)” value in experiment [6] was found to be 88%. The “concentration of chemical chelator” value in experiment [6] came out at 180 µM. In addition, in experiment [6], the “Reversal of the neuromuscular blocking action of rocuronium (in words)” value is listed as “efficiently blocked”.

Turning to “γ-cyclodextrin-phospate sodium salt (DS = 3) [Compound 11]”, the “Dose (ED50) producing 50% reversal” value in experiment [1] was 67 (3) μmol.kg^−1; in [2] it was 160 (2) μmol.kg^−1; in experiment [3] it was 292 (2) μmol.kg^−1; in [4], 80 (3) μmol.kg^−1; in experiment [5], 197 (2) μmol.kg^−1; in experiment [7] it was 113 (2) μmol.kg^−1. Besides, the “Dose (ED50) producing 50% reversal” value is 204 (2) μmol.kg^−1 in experiment [8], 64 (3) μmol.kg^−1 in [9] and 160 (2) μmol.kg^−1 in experiment [10]. Moreover, the “Mouse hemidiaphragm … (%)” value in experiment [6] is 34%. Also, in experiment [6], the “concentration of chemical chelator” value came to 360 µM.
